Legend:
Vasopressin V1a receptor [1] = target: T1, Vasopressin V1a receptor (Homo sapiens, UniProt P37288); test: Displacement of DY647 from SNAP-tagged V1A receptor (unknown origin) expressed in HEK293 cells by TR-FRET assay; type: cell-based
Target sequence in this assay (P37288 whole entry): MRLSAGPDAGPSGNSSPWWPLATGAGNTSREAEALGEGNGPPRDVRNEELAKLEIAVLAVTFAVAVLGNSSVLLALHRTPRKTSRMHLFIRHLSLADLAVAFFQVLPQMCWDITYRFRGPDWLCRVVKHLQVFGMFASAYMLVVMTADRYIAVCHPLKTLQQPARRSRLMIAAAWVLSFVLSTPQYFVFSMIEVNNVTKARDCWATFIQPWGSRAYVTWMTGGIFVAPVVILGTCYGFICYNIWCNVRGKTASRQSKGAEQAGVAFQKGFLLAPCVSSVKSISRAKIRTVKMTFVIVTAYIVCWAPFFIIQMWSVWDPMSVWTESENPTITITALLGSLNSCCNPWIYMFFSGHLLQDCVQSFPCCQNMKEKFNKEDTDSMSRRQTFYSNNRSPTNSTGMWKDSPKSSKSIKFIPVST

Vasopressin V1a receptor [2] = target: T1, Vasopressin V1a receptor; test: Agonist activity at human V1A receptor expressed in HEK cells assessed as increase in intracellular calcium flux at 1 uM incubated for 45 mins by Indo1-AM dye based fluorescence assay relative to AVP; type: functional, cell-based
Target sequence in this assay (P37288 whole entry, looked up): as the sequence (P37288 whole entry) above

Vasopressin V1a receptor [3] = target: T1, Vasopressin V1a receptor; test: Antagonist activity at human V1A receptor expressed in HEK cells assessed as inhibition of AVP-induced intracellular calcium flux incubated for 45 mins by Indo1-AM dye based fluorescence assay relative to AVP; type: functional, cell-based
Target sequence in this assay (P37288 whole entry): as above

Vasopressin V2 receptor [4] = target: T2, Vasopressin V2 receptor (Homo sapiens, UniProt P30518); test: Displacement of DY647 from SNAP-tagged V2 receptor (unknown origin) expressed in HEK293 cells by TR-FRET assay; type: cell-based
T2 sequence (P30518 whole entry): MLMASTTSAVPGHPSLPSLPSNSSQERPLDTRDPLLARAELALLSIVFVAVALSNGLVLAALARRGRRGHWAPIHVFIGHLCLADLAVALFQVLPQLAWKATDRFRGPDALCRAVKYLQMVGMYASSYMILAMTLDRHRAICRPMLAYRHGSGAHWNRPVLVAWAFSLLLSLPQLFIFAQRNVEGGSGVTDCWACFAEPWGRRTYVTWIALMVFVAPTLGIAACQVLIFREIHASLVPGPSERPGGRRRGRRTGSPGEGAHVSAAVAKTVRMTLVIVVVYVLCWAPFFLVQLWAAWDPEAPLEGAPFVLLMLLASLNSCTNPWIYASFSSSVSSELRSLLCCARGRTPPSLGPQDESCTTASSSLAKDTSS

Oxytocin receptor [5] = target: T3, Oxytocin receptor (Homo sapiens, UniProt P30559); test: Displacement of DY647 from SNAP-tagged OTR receptor (unknown origin) expressed in HEK293 cells by TR-FRET assay; type: cell-based
T3 sequence (P30559 whole entry): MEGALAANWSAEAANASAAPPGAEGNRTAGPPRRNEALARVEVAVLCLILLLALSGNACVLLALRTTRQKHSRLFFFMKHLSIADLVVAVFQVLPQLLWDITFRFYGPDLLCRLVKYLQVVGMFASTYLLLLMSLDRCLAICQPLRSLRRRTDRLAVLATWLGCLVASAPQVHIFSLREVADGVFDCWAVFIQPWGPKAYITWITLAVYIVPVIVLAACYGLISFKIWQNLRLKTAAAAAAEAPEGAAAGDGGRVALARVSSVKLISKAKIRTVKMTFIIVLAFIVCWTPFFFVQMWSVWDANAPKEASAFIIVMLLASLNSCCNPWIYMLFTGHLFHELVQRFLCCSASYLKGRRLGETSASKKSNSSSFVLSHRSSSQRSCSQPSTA

[6] = target: T4, Oxytocin receptor (Homo sapiens) (UniProt P30559); test: Agonist activity at human OTR expressed in HEK cells assessed as increase in intracellular calcium flux at 1 uM incubated for 45 mins by Indo1-AM dye based fluorescence assay relative to OT; type: functional, cell-based
T4 sequence (whole entry): T3 sequence (P30559 whole entry)

Oxytocin receptor [7] = target: T3, Oxytocin receptor; test: Antagonist activity at human OTR expressed in HEK cells assessed as inhibition of OT-induced intracellular calcium flux incubated for 45 mins by Indo1-AM dye based fluorescence assay; type: functional, cell-based
Oxytocin receptor [8] = target: T3, Oxytocin receptor; test: Agonist activity at human OTR expressed in HEK cells assessed as increase in intracellular calcium flux incubated for 45 mins by Indo1-AM dye based fluorescence assay; type: functional, cell-based
[9] = target: T4, Oxytocin receptor (Homo sapiens); test: Agonist activity at human OTR expressed in HEK cells assessed as increase in intracellular calcium flux incubated for 45 mins by Indo1-AM dye based fluorescence assay relative to OT; type: functional, cell-based
[10] = target: T4, Oxytocin receptor (Homo sapiens); test: Antagonist activity at human OTR expressed in HEK cells assessed as inhibition of OT-induced intracellular calcium flux at 1 uM incubated for 45 mins by Indo1-AM dye based fluorescence assay relative to OT; type: functional, cell-based
Vasopressin V1a receptor [11] = target: T1, Vasopressin V1a receptor; test: Displacement of [3H]-AVP from human V1A receptor expressed in CHO cell membranes by radioligand binding assay
Target sequence in this assay (P37288 whole entry): as the sequence (P37288 whole entry) above

Vasopressin V2 receptor [12] = target: T2, Vasopressin V2 receptor; test: Displacement of [3H]-AVP from human V2 receptor expressed in CHO cell membranes by radioligand binding assay
Oxytocin receptor [13] = target: T3, Oxytocin receptor; test: Displacement of [3H]-AVP from human OXR receptor expressed in CHO cell membranes by radioligand binding assay
Vasopressin V1a receptor [14] = target: T1, Vasopressin V1a receptor; test: Antagonist activity at human V1A receptor expressed in CHO cells assessed as inhibition of AVP-induced myo-inositol 1-phosphate accumulation by IP-One assay; type: functional, cell-based
Target sequence in this assay (P37288 whole entry, looked up): as the sequence (P37288 whole entry) above

Vasopressin V2 receptor [15] = target: T2, Vasopressin V2 receptor; test: Antagonist activity at human V2 receptor expressed in CHO cells assessed as inhibition of AVP-induced cAMP accumulation by cAMP dynamic 2 assay; type: functional, cell-based
[16] = target: T4, Oxytocin receptor (Homo sapiens); test: Antagonist activity at human OTR receptor expressed in CHO cells assessed as inhibition of OT-induced myo-inositol 1-phosphate accumulation by IP-One assay; type: functional, cell-based
[17] = target: T4, Oxytocin receptor (Homo sapiens); test: Agonist activity at human OTR receptor expressed in CHO cells assessed as increase in myo-inositol 1-phosphate accumulation at 1 uM by IP-One assay relative to OT; type: functional, cell-based
Vasopressin V1a receptor [18] = target: T1, Vasopressin V1a receptor; test: Agonist activity at human V1A receptor expressed in CHO cells assessed as increase in myo-inositol 1-phosphate accumulation at 1 uM by IP-One assay relative to AVP; type: functional, cell-based
Target sequence in this assay (P37288 whole entry, looked up): as the sequence (P37288 whole entry) above

Vasopressin V1a receptor [19] = target: T1, Vasopressin V1a receptor; test: Antagonist activity at human V1A receptor expressed in CHO cells assessed as inhibition of AVP-induced myo-inositol 1-phosphate accumulation at 1 uM by IP-One assay relative to AVP; type: functional, cell-based
Target sequence in this assay (P37288 whole entry, looked up): as the sequence (P37288 whole entry) above

[20] = target: T4, Oxytocin receptor (Homo sapiens); test: Antagonist activity at human OTR receptor expressed in CHO cells assessed as inhibition of OT-induced myo-inositol 1-phosphate accumulation at 1 uM by IP-One assay relative to OT; type: functional, cell-based
Homo sapiens [21] = species: Homo sapiens; test: Selectivity for human V1a receptor over human V2 receptor
Homo sapiens [22] = species: Homo sapiens; test: Selectivity for human OTR receptor over human V2 receptor
Vasopressin V1a receptor [23] = target: T1, Vasopressin V1a receptor; test: Displacement of [3H]-AVP from human V1A receptor expressed in CHO cell membranes
Target sequence in this assay (P37288 whole entry): as above

Vasopressin V1b receptor = target: T5, Vasopressin V1b receptor (Homo sapiens, UniProt P47901); test: Displacement of [3H]-AVP from human V1B receptor expressed in CHO cell membranes
T5 sequence (P47901 whole entry): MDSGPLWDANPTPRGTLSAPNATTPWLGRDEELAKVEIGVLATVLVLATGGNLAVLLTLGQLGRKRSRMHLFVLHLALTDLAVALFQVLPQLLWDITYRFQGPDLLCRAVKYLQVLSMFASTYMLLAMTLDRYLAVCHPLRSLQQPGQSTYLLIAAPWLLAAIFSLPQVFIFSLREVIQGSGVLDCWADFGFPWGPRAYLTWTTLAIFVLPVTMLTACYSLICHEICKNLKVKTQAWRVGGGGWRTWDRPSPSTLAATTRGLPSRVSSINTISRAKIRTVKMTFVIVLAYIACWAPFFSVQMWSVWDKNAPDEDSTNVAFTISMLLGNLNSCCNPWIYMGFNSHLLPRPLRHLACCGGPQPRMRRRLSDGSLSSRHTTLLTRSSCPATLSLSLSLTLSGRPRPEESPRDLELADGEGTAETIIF

Vasopressin V2 receptor [24] = target: T2, Vasopressin V2 receptor; test: Displacement of [3H]-AVP from human V2 receptor expressed in CHO cell membranes
Oxytocin receptor [25] = target: T3, Oxytocin receptor; test: Displacement of [3H]-oxytocin from OTR receptor in human USMC cell membranes

Question: With `COC(=O)CNC(=O)NCc1ccc(C(=O)N2Cc3cnn(C)c3Nc3ccccc32)cc1C` as the compound, how does the Ki (Vasopressin V1a receptor [1]) read?
Answer: > 1000 nM

Question: And the Emax (Vasopressin V1a receptor [2])?
Answer: 5 to 10%

Question: And the IC50 (Vasopressin V1a receptor [3])?
Answer: 110 nM

Question: What about the Ki (Vasopressin V2 receptor [4]) of the same compound?
Answer: > 1000 nM

Question: What about the Ki (Oxytocin receptor [5]) of the same compound?
Answer: 385 nM

Question: And the Emax [6]?
Answer: 5 to 10%

Question: And the IC50 (Oxytocin receptor [7])?
Answer: > 1000 nM

Question: With `Cc1cc(C(=O)N2Cc3cnn(C)c3Nc3ccccc32)ccc1CNC(=O)N1CCC[C@H]1C(=O)N(C)C` as the compound, how does the Ki (Vasopressin V1a receptor [1]) read?
Answer: > 1000 nM

Question: And the Emax (Vasopressin V1a receptor [2])?
Answer: 5 to 10%

Question: What about the IC50 (Vasopressin V1a receptor [3]) of the same compound?
Answer: 95 nM

Question: And the Ki (Vasopressin V2 receptor [4])?
Answer: > 1000 nM

Question: And the Ki (Oxytocin receptor [5])?
Answer: > 1000 nM

Question: What about the EC50 (Oxytocin receptor [8]) of the same compound?
Answer: 300 nM

Question: And the Emax [9]?
Answer: 34%

Question: What about the inhibition [10] of the same compound?
Answer: 5 to 10%

Question: `O=C(c1ccc(-c2cccnc2)cc1)N1CCCCc2ccccc21` was tested. Which Ki (Vasopressin V1a receptor [11]) did it give?
Answer: 67 nM

Question: What about the Ki (Vasopressin V2 receptor [12]) of the same compound?
Answer: 233 nM

Question: And the Ki (Oxytocin receptor [13])?
Answer: 150 nM

Question: What about the Kinact (Vasopressin V1a receptor [14]) of the same compound?
Answer: 51 nM

Question: What about the Kinact (Vasopressin V2 receptor [15]) of the same compound?
Answer: 78 nM

Question: What about the Kinact [16] of the same compound?
Answer: 227 nM

Question: What about the Emax [17] of the same compound?
Answer: < 10%

Question: What about the Emax (Vasopressin V1a receptor [18]) of the same compound?
Answer: < 10%

Question: For `Cc1cc(C(=O)N2Cc3cnn(C)c3Nc3ccccc32)ccc1CNC(=O)NCC(=O)N(C)C`, which Ki (Vasopressin V1a receptor [1]) is on record?
Answer: > 1000 nM

Question: And the Emax (Vasopressin V1a receptor [2])?
Answer: 5 to 10%

Question: And the IC50 (Vasopressin V1a receptor [3])?
Answer: 50 nM

Question: And the Ki (Vasopressin V2 receptor [4])?
Answer: > 1000 nM

Question: What about the Ki (Oxytocin receptor [5]) of the same compound?
Answer: 417 nM

Question: And the Emax [6]?
Answer: 5 to 10%

Question: And the IC50 (Oxytocin receptor [7])?
Answer: 775 nM

Question: For `Cc1ccn(-c2ccc(C(=O)N3CCCC(N(C)C)c4ccccc43)c(Cl)c2)n1` (stereo not given), which Ki (Vasopressin V1a receptor [11]) is on record?
Answer: < 10 nM

Question: What about the Ki (Vasopressin V2 receptor [12]) of the same compound?
Answer: 331 nM

Question: And the Ki (Oxytocin receptor [13])?
Answer: > 1000 nM

Question: What about the Kinact (Vasopressin V2 receptor [15]) of the same compound?
Answer: 126 nM

Question: What about the inhibition (Vasopressin V1a receptor [19]) of the same compound?
Answer: < 10%

Question: What about the inhibition [20] of the same compound?
Answer: < 10%

Question: And the Emax (Vasopressin V1a receptor [18])?
Answer: < 10%

Question: And the Selectivity ratio (Homo sapiens [21])?
Answer: > 30

Question: And the Selectivity ratio (Homo sapiens [22])?
Answer: > 3

Question: Which Ki (Vasopressin V1a receptor [23]) does the source give for `Cc1occc1C(=O)Nc1ccc(C(=O)N2CCC(F)(F)/C(=C\C(=O)N3CCC(N4CCCCC4)CC3)c3ccccc32)cc1` here?
Answer: 0.3 nM

Question: And the Ki (Vasopressin V1b receptor)?
Answer: 25500 nM

Question: And the Ki (Vasopressin V2 receptor [24])?
Answer: 381 nM

Question: What about the Ki (Oxytocin receptor [25]) of the same compound?
Answer: 71 nM

Question: With `O=C(c1ccc(-c2ccccc2)cc1)N1CCCCc2ccccc21` as the compound, how does the Ki (Vasopressin V1a receptor [11]) read?
Answer: 2.28 nM

Question: And the Ki (Vasopressin V2 receptor [12])?
Answer: 78 nM

Question: What about the Ki (Oxytocin receptor [13]) of the same compound?
Answer: 10.4 nM

Question: What about the Kinact (Vasopressin V2 receptor [15]) of the same compound?
Answer: 132 nM

Question: And the Kinact [16]?
Answer: 42 nM

Question: What about the Emax [17] of the same compound?
Answer: < 10%

Question: What about the Emax (Vasopressin V1a receptor [18]) of the same compound?
Answer: < 10%
